Series [1] has as its target T1, human CB2R (Homo sapiens, UniProt P34972). Briefly: PathHunter β-Arrestin assay, beta-arrestin recruitment. The class given is cell-based. The following applies: for Activation of beta-arrestin pathway (in words): hCB2, CP-55940 as control. Here is the method:
The assay was performed using the PathHunter β-Arrestin human CB2 cell line (catalog no. 93-0706C2) and using the PathHunter® β-Arrestin Assay for GPCR Cell Lines (source: DiscoveRx, Fremont, CA, USA), according to the manufacturer's protocol (https://www.discoverx.com/tools-resources/document-resource-library/documents/user-manual-pathhunter-% CE % B2-arrestin-assay-for-gpcr-c). Briefly, cells were seeded at a density of 10,000 cells per well in a 96-well plate and incubated overnight (16-18 h) in a humidified atmosphere at 37° C. and 5% C02. Agonist prepared in PBS was added and the assay plate incubated for 3 h in a humidified atmosphere at 37° C. and 5% C02. Working detection solution was added and the plate was incubated for 1 h in the dark at room temperature. Chemiluminescence was measured on an CLARIOstar plate reader (BMG LABTECH Inc., Cary, NC, USA).
In general terms: Activated receptors often draw arrestin, which recruitment assays turn into a signal.

Series [2] concerns the target T1, human CB2R. Briefly: cAMP Hunter eXpress GPCR assay, human CB2: inhibition of forskolin-stimulated cAMP in CHO cells. The class given is cell-based. Details: host or cells: CHO cells. The method, then: Briefly, cAMP Hunter eXpress Cells were seeded 18-24 h prior to the in a 96-well tissue culture treated assay plate and incubated in 5% CO2 at 37° C. in a humidified incubator. After removal of cell media, agonist compound and forskolin prepared in cell assay buffer was added and incubated at 37° C. The CB1 cAMP assay was stimulated with 20 μM final concentration of forskolin with 40 minutes incubation time. The CB2 cAMP assay was stimulated with 25 μM final concentration of forskolin with 35 minutes incubation time. The assay was stopped by incubation with antibody and working solution for 1 h at room temperature. After over 3 h incubation at room temperature in the dark with enzyme acceptor solution, chemiluminescence was measured on a CLARIOstar plate reader (BMG LABTECH Inc., Cary, NC, USA).

For series [3], the system named is Male C57BL/6J mice brain tissue. Briefly: Brain cytokine gene expression (TaqMan qPCR). Particulars: 0.1 and 0.3 mg/kg or 1, 2, and 3 mg/kg. It is filed as in vivo, mouse. Here is the method: Male C57BL/6J mice, 6-8 weeks old were dosed on Day 1,2,3,4,5, and 10, or 11 with vehicle or CBS-159 at 0.1 and 0.3 mg/kg or 1, 2, and 3 mg/kg. Mice were terminated on Day 10 or 11, 3.5 hours after dosing vehicle or CBS-159. Total RNA was isolated from brain tissue dissections using the RNeasy Lipid Tissue Mini Kit (Qiagen) (see Evans et al. Neurobiol. Dis. 2020, 146:105089). One microgram of total RNA was transcribed into cDNA (Superscript III, Invitrogen). PCR was performed in triplicate using TaqMan gene expression master mix (Applied Bio-systems) and validated TaqMan gene expression assays, Tnfa (Mm00443258_m1), IL1β (Mm00434228_m1), IL6 (Mm00446190_m1),), IL18 (Mm00434226_m1), and glyceraldehyde-3-phosphate dehydrogenase (Gapdh; Mm99999915_g1). Amplification was performed using a StepOnePlus system (Applied Biosystems). Fold changes of expression relative to control were determined after normalization to Gapdh. Relative quantification and old change were calculated by the comparative CT method (Schmittgen and Livak, Nat. Protoc. 2008, 3(6):1101-1108).
(In qPCR the cycle at which signal appears reflects the starting amount.)

The subject of series [4] is Male C57Bl6J mice. Briefly: Spontaneous locomotor activity in activity chamber. The class given is in vivo, mouse. Particulars: mouse, in vivo, ip.
Series [5] relates to mice dosed with LPS and ATP. Kind of series: LPS model of systemic inflammation, Luminex cytokines in plasma and brain homogenate. It is filed as in vivo, mouse. Particulars: 0.5 mg/kg ip daily for 10 days, LPS 100 ug/kg ip, ATP 50 mg/kg ip. Here is the method:
Mice were dosed with Compound 24 (0.5 mg/kg ip) or vehicle daily for 10 days. Lipopolysaccharide (LPS) (100 ug/kg ip) was given 1 hour after 10th dose on final day. ATP (50 mg/kg ip) was given 2 hours after LPS and then mice were sacrificed 30 minutes after ATP (2.5 hours after LPS). Multiplex tissue cytokines were analyzed in plasma and brain homogenate from all brain regions dissected above using a Luminex 38-plex mouse cytokine assay as previously described for aged versus young mice (Evans et al. Neurobiol Aging 2021; 106:241-56). The Luminex assay was performed according to the manufacturer's instructions. Briefly, tissue samples were homogenized in RIPA buffer containing proteinase inhibitor by pulling tissue through a 23 g needle (15×) and then sonicating for 3×3 second pulses. Homogenate was spun at 14,000 g for 10 minutes, and protein concentrations were determined by the Pierce BCA assay. Samples were diluted to a common concentration of 6 μg/μL. Plasma samples were diluted 1:3. Plasma and brain homogenate samples were run in duplicate on a 96 well plate alongside standard curve and quality control calibration samples.

Series [6] relates to heroin-addicted mice. Briefly: Naloxone-precipitated withdrawal model. The class given is in vivo, mouse. Particulars: 3 mg/kg i.p., jumping 1 minute after naloxone 50 mg/kg. Here is the method: The naloxone-precipitated withdrawal model uses an opioid receptor antagonist, naloxone, to trigger highly aversive withdrawal symptoms (e.g., jumping, burrowing, “wet-dog” shakes, hyperreactivity) in heroin-addicted mice. Signs such as jumping can be quantified after administration of naloxone (“naloxone precipitated withdrawal”). […] On Day 7, 60 minutes after a final drug and heroin dose (40 mg/kg), naloxone was administered (50 mg/kg), and jump count measured for 1-15 minutes.

Series [7] relates to Heroin SA-trained rats. Kind of series: Heroin self-administration model. The class given is in vivo, rat. The following applies: treated daily during 21 days of abstinence, 3 mg/kg i.p., vs vehicle. The method, then:
In the heroin SA model, rats were surgically implanted with a catheter that connects to their heart. […] They learned to press an active lever to get an infusion of heroin through their implanted tube. […] Heroin SA-trained rats underwent 21 days of abstinence after training. […] Heroin-seeking behaviors were assessed before and after the abstinence period.

[8] abbreviates: cAMP assay, CP-55940 as full agonist control.

Entries after “also recorded” stand apart in the source; their conditions may differ. Bounds are passed on as bounds.

T1 sequence (P34972 whole entry): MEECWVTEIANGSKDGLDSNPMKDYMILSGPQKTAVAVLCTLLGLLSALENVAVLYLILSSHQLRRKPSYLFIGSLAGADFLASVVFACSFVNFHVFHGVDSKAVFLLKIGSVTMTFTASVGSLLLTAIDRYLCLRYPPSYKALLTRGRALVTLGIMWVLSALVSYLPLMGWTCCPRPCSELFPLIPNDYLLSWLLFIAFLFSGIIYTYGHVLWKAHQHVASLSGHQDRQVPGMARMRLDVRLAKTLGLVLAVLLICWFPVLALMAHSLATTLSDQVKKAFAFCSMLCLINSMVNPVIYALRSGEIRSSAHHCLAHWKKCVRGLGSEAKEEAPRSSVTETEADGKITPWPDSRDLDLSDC

For `CN1CCN(c2nccc3c2nc(-c2ccccc2Cl)n3C2CCOCC2)CC1` [Compound 1, 2-(2-chlorophenyl)-4-(4-methylpiperazin-1-yl)-1-(tetrahydro-2H-pyran-4-yl)-1H-imidazo[4,5-c]pyridine], the melting point lay within 231 to 235 °C.
On the same count and under the same terms, with `Cc1cc2c(nc(-c3ccccc3Cl)n2C2CCOCC2)c(N2CCN(C)CC2)n1` [Compound 2, 2-(2-chlorophenyl)-6-methyl-4-(4-methylpiperazin-1-yl)-1-(tetrahydro-2H-pyran-4-yl)-1H-imidazo[4,5-c]pyridine] the figure was 248 to 252 °C.
Compound `CC(C)(C)c1cc(NC(=O)N2CCCN2c2ccc(C(F)(F)F)cn2)on1` [Compound 3, N-(3-(tert-butyl)isoxazol-5-yl)-2-(5-(trifluoromethyl)pyridin-2-yl)pyrazolidine-1-carboxamide] returned a melting point of 184 to 188 °C.
The compound `CC(C)(C)c1cc(NC(=O)N2CCCN2c2ccc(C(F)(F)F)cc2)on1` [Compound 11, N-(3-(tert-butyl)isoxazol-5-yl)-2-(4-(trifluoromethyl)phenyl)pyrazolidine-1-carboxamide] had a melting point of 211 to 215 °C. Besides, in series [1], the EC50 was over 1000 nM and the “Activation of beta-arrestin pathway (in words)” value (“Activation” below) is recorded as “weakly/partially activates the beta-arrestin pathway”. For the same compound, the Emax in series [1] (read-out: B-arrestin Maximum Activation) came out at 35.5%. Besides, the Emax in series [2] (CHO, read-out: CB2 Maximum Activation) is 114%. Also, in series [2] (Table 3; cAMP assay, 25 μM forskolin, 35 minutes; read-out: CB2 EC50), the EC50 worked out at 75.2 nM. Besides, the “CB2 agonist character (in words)” value in series [2] (setting [8]) is “full agonist”. In series [2] (cAMP assays hCB1 vs hCB2), the “Selectivity for CB2 over CB1 (in words)” value is on record as “selective for CB2 over CB1”.
For the compound `O=C(Nc1cc(C2CC2)no1)N1CCCN1c1ccc(C(F)(F)F)cc1` [Compound 16, N-(3-cyclopropylisoxazol-5-yl)-2-(4-(trifluoromethyl)phenyl)pyrazolidine-1-carboxamide], the “Activation” value in series [1] is recorded as “almost no beta-arrestin activity”. Moreover, the “CB2 agonist character (in words)” value in series [2] (setting [8]) was “partial agonist of CB2”. For the same compound, the “Selectivity for CB2 over CB1 (in words)” value in series [2] (cAMP assays hCB1 vs hCB2) is on record as “selective for CB2 over CB1”.
`CC(C)(C)c1cc(NC(=O)N2CCCN2c2cc(F)cc(F)c2)on1` [Compound 19, N-(3-(tert-butyl)isoxazol-5-yl)-2-(3,5-difluorophenyl)pyrazolidine-1-carboxamide]: the melting point fell in the range of 181 to 185 °C.
On the same count and under the same terms, with `CC(C)(C)c1cc(NC(=O)N2CCCN2c2ccc(F)cc2)on1` [Compound 21, N-(3-(tert-butyl)isoxazol-5-yl)-2-(4-fluorophenyl)pyrazolidine-1-carboxamide] the figure was 190 to 194 °C.
For the compound `CC(C)(CO)c1cc(NC(=O)N2CCCN2c2ccc(C(F)(F)F)cn2)on1` [Compound 24, N-(3-(1-hydroxy-2-methylpropan-2-yl)isoxazol-5-yl)-2-(5-(trifluoromethyl)pyridin-2-yl)pyrazolidine-1-carboxamide], the “Anti-inflammatory function in the brain” value in series [3] is given as “displays anti-inflammatory function in the brain”. For the same compound, the “Activation” value in series [1] is “weak beta-arrestin activity”. For the same compound, the “Distance moved / spontaneous locomotor activity” value in series [4] is “does not affect spontaneous locomotor activity in mice”. The “CB2 agonist character (in words)” value in series [2] (setting [8]) is on record as “potent agonists of CB2”. In series [2] (cAMP assays hCB1 vs hCB2), the “Selectivity for CB2 over CB1 (in words)” value is on record as “selective for CB2 over CB1”. The “Anti-inflammatory function in LPS model of systemic inflammation” value in series [5] is recorded as “has anti-inflammatory activity; also recorded: displays anti-inflammatory function in a LPS model of systemic inflammation”.
Compound `CC(C)(C)c1cc(NC(=O)N2CCCC2c2ccc(C(F)(F)F)cc2)no1` (stereo not drawn) [Compound 26, N-(5-(tert-butyl)isoxazol-3-yl)-2-(4-(trifluoromethyl)phenyl)pyrrolidine-1-carboxamide] returned a melting point of 175 to 179 °C.
In turn, `CC(C)(C)c1cc(NC(=O)N2CCC(=O)N2c2ccc(C(F)(F)F)cc2)on1` [Compound 29, N-(3-(tert-butyl)isoxazol-5-yl)-3-oxo-2-(4-(trifluoromethyl)phenyl)pyrazolidine-1-carboxamide] showed a melting point of 186 to 190 °C.
Same read-out and setting: with `CC(C)(C)c1cc(NC(=O)N2CCCN2)on1` [Compound 31, N-(3-(tert-butyl)isoxazol-5-yl)pyrazolidine-1-carboxamide] the figure was 175 to 179 °C.
For the compound `Cc1nc(N2CCN(C)CC2)c2nc(-c3ccccc3Cl)n(C3CCOCC3)c2n1` [LY2828360, reference compound], the “Activation” value in series [1] is listed as “weakly/partially activates the beta-arrestin pathway”. Moreover, the Emax in series [1] (read-out: CB2 Maximum Activation) stood at 51.7%; in series [2] (CHO; read-out: CB2 Maximum Activation) it was 52.6%. Moreover, in series [6], the “Negative effects of heroin withdrawal (jumping behavior after naloxone)” value is listed as “reduce the negative effects of heroin withdrawal”. For the same compound, the Abstinence-induced heroin seeking result in series [7] was “less abstinence-induced heroin seeking than the vehicle-treated rats”.

In general, melting point refers to the temperature, or range, at which the solid turns liquid. The EC50 is the midpoint of the concentration-response curve.

Values taken from patent publication US20240158384A1, “CB2 RECEPTOR AGONISTS” (The Board of Trustees of the Leland Stanford Junior …, priority 2020, published 2024).
